Measured values published in the NIST ThermoML archive (doi:10.1021/je060271a).
Several values for one entry are separate records, joined by “and”; a condition that tells them apart may be missing. Equal values may be shown once.

Conditions: 303.15 K, Liquid, Vibrating tube method

CCCCCC(=O)OCC(COC(=O)CCCCC)(COC(=O)CCCCC)COC(=O)CCCCC [pentaerythritol tetrahexanoate]
Conditions	mass density
8586.4 kPa	993.8 kg/m3
8609.7 kPa	993.8 kg/m3
8636.8 kPa	993.8 kg/m3
8659.9 kPa	993.9 kg/m3
8683.2 kPa	993.9 kg/m3
8710.9 kPa	993.9 kg/m3
8734.7 kPa	993.9 kg/m3
8758.2 kPa	993.9 kg/m3
8782.3 kPa	993.9 kg/m3
8806.3 kPa	994 kg/m3
8834.9 kPa	994 kg/m3
8858 kPa	993.9 kg/m3
8886.3 kPa	994 kg/m3
8910.4 kPa	994 kg/m3
8934.4 kPa	994 kg/m3
8958.2 kPa	994 kg/m3
8987 kPa	993.9 kg/m3
9010.8 kPa	994.1 kg/m3
9035.1 kPa	994.1 kg/m3
9064.4 kPa	994.1 kg/m3
9088.5 kPa	994.1 kg/m3
9118.9 kPa	994.2 kg/m3
9143 kPa	994.1 kg/m3
9168.2 kPa	994.3 kg/m3
9192.8 kPa	994.1 kg/m3
9222.6 kPa	994.1 kg/m3
9247.5 kPa	994.2 kg/m3
9272.5 kPa	994.3 kg/m3
9301.8 kPa	994.2 kg/m3
9327.6 kPa	994.2 kg/m3
9352.8 kPa	994.4 kg/m3
9378.4 kPa	994.3 kg/m3
9409.1 kPa	994.3 kg/m3
9434.6 kPa	994.3 kg/m3
9461.4 kPa	994.4 kg/m3
9492.2 kPa	994.3 kg/m3
9517.5 kPa	994.3 kg/m3
9543.4 kPa	994.4 kg/m3
9574.4 kPa	994.4 kg/m3
9600.4 kPa	994.5 kg/m3
9627 kPa	994.4 kg/m3
9658 kPa	994.6 kg/m3
9684.2 kPa	994.6 kg/m3
9710.4 kPa	994.5 kg/m3
9742.2 kPa	994.4 kg/m3
9768.8 kPa	994.5 kg/m3
9796.2 kPa	994.6 kg/m3
9828.9 kPa	994.6 kg/m3
9855.9 kPa	994.7 kg/m3
9882.5 kPa	994.6 kg/m3
9909.3 kPa	994.6 kg/m3
9941.9 kPa	994.6 kg/m3
9968.9 kPa	994.7 kg/m3
9997 kPa	994.7 kg/m3
10030 kPa	994.7 kg/m3
10057 kPa	994.7 kg/m3
10085 kPa	994.7 kg/m3
10118 kPa	994.7 kg/m3
10146 kPa	994.8 kg/m3
10174 kPa	994.8 kg/m3
10202 kPa	994.8 kg/m3
10236 kPa	994.8 kg/m3
10264 kPa	994.8 kg/m3
10297 kPa	994.8 kg/m3
10325 kPa	994.9 kg/m3
10354 kPa	994.8 kg/m3
10383 kPa	994.8 kg/m3
10417 kPa	994.9 kg/m3
10445 kPa	994.9 kg/m3
10474 kPa	995 kg/m3
10508 kPa	994.9 kg/m3
10537 kPa	994.9 kg/m3
10573 kPa	995.1 kg/m3
11095 kPa	995.5 kg/m3
11124 kPa	995.3 kg/m3
11154 kPa	995.4 kg/m3
11188 kPa	995.3 kg/m3
11217 kPa	995.4 kg/m3
11246 kPa	995.5 kg/m3
11280 kPa	995.5 kg/m3
11309 kPa	995.4 kg/m3
11338 kPa	995.5 kg/m3
11372 kPa	995.5 kg/m3
11399 kPa	995.6 kg/m3
11427 kPa	995.6 kg/m3
11649 kPa	995.6 kg/m3
11671 kPa	995.7 kg/m3
11694 kPa	995.7 kg/m3
11712 kPa	995.7 kg/m3
11728 kPa	995.6 kg/m3
11744 kPa	995.7 kg/m3
11761 kPa	995.7 kg/m3
11774 kPa	995.7 kg/m3
11800 kPa	995.8 kg/m3
11835 kPa	995.8 kg/m3
11840 kPa	995.9 kg/m3
11846 kPa	995.8 kg/m3
11853 kPa	995.9 kg/m3
11865 kPa	995.8 kg/m3
11879 kPa	995.9 kg/m3
11887 kPa	995.8 kg/m3
11892 kPa	995.9 kg/m3
11903 kPa	995.8 kg/m3
11916 kPa	995.8 kg/m3
11919 kPa	995.9 kg/m3
11920 kPa	995.9 kg/m3 and 995.8 kg/m3 and 995.7 kg/m3
11921 kPa	995.9 kg/m3
11922 kPa	995.8 kg/m3 and 995.9 kg/m3
11923 kPa	995.8 kg/m3
12035 kPa	995.9 kg/m3
12053 kPa	996 kg/m3
12071 kPa	995.9 kg/m3
12092 kPa	995.9 kg/m3
12111 kPa	995.9 kg/m3
12129 kPa	996 kg/m3
12151 kPa	996.1 kg/m3
12169 kPa	996 kg/m3
12188 kPa	995.9 kg/m3
12212 kPa	996 kg/m3
12226 kPa	996.1 kg/m3
12248 kPa	996 kg/m3
12267 kPa	996.1 kg/m3
12285 kPa	996.1 kg/m3
12308 kPa	996.1 kg/m3
12326 kPa	996.1 kg/m3
12348 kPa	996.1 kg/m3
12367 kPa	996.1 kg/m3
12386 kPa	996.2 kg/m3
12409 kPa	996.2 kg/m3
12428 kPa	996.2 kg/m3
12448 kPa	996.1 kg/m3
12468 kPa	996.2 kg/m3
12490 kPa	996.3 kg/m3
12509 kPa	996.3 kg/m3
12529 kPa	996.2 kg/m3
12552 kPa	996.3 kg/m3
12571 kPa	996.1 kg/m3
12591 kPa	996.2 kg/m3
12610 kPa	996.3 kg/m3
12634 kPa	996.3 kg/m3
12654 kPa	996.2 kg/m3
12673 kPa	996.3 kg/m3
12697 kPa	996.4 kg/m3
12716 kPa	996.4 kg/m3
12736 kPa	996.4 kg/m3
